Reference: patent US8410273B2, “Cyclic compound having substituted phenyl group” (Daiichi Sankyo Company, Limited, priority 2009, dated 2013)

Tested on: female F344 rats
Test: Effect on bone density (femur, DXA) after oophorectomy or sham surgery
Assay type: in vivo
Conditions: at 3 mg/kg or less, orally once a day, six days a week, six weeks
Method: Eight to 12 week old female F344 rats were purchased from Charles River Laboratories and used in the following experiment. Rats were anesthetized with an intraperitoneal administration of 40 mg/kg of Somnopentyl (Kyoritsu Seiyaku Corporation), and then oophorectomy or sham surgery was performed. From the day after surgery, a suspension of the test compound in a 0.5% methyl cellulose solution (Wako Pure Chemical Industries, Ltd. Cat. No. 133-14255) was orally administered once a day, six days a week. Six weeks after administration, the rats were euthanized by removal of whole blood from the lower abdominal aorta under Somnopentyl anesthesia, and the left and right femur was excised.
After removal of soft tissues, the bone density of the femur thus excised was measured by a DXA apparatus, DCS-600R (Aloka Co., Ltd.). The bone density was assessed in the whole femur as well as in three equal sections of the whole femur, namely the proximal end, the shaft, and the distal end.

Row | Compound | bone density of the femur
1 | NC(=O)c1ccc2cncc(-c3ccc(OCCOC4CCOCC4)cc3)c2n1 [Example 9, 8-{4-[2-(Tetrahydro-2H-pyran-4-yloxy)ethoxy]phenyl}-1,6-naphthyridine-2-carboxamide] | significantly increased the bone density
2 | Cn1ccc2cc(-c3cncc4ccc(C(N)=O)cc34)ccc21 [Example 33] | significantly increased the bone density
3 | NC(=O)c1ccc2cncc(-c3ccc(OCCO)cc3)c2c1 [Example 36] | significantly increased the bone density
4 | NC(=O)c1ccc2cncc(-c3ccc(Cl)cc3)c2c1 [Example 118] | significantly increased the bone density
